Publication PMC5447464 (Gastroenterology, 2017)
pIC50: −log10 of the molar value. Read-outs that look alike come from different tables or passages of the source.

Experiments:
Huh7 = assay: Viability of HCC cell line Huh7; assay type: cell-based, human
CDC37 [1] = target: T1, CDC37 (Homo sapiens, UniProt Q16543); assay: Thermal Shift Assay; assay type: binding; details: DMSO control 52.3 °C
T1 sequence (Q16543 1-378): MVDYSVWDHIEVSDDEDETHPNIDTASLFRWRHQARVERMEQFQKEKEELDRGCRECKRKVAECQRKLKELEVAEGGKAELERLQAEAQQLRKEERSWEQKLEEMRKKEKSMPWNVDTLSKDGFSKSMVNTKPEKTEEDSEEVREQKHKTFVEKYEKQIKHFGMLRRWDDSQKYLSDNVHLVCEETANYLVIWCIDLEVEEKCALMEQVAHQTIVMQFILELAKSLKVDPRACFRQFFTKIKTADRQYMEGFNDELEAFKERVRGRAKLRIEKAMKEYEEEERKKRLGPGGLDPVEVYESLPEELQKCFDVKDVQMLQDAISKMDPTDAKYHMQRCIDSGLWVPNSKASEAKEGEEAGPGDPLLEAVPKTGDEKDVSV

SNU-398 = assay: Viability of HCC cell line SNU-398; assay type: cell-based, human
[2] = system: HSP70 and HSP27 expression; assay: Western blot for heat shock response; assay type: cell-based; details: treated cell lines
[3] = system: control shRNA and CDC37 shRNA stable transfected Huh7; assay: Cell viability of control shRNA and CDC37 shRNA Huh7; assay type: cell-based, human; details: 6 days of treatment
HepG2 and Huh7 cells [4] = assay: In vitro anti-proliferation assay combined with sorafenib; assay type: cell-based, human; details: added at its IC30 or IC50 to a range of sorafenib concentrations
[5] = single oral dose 40 mg/Kg, mice bearing PDX, compared with niclosamide
Hep3B = assay: Viability of HCC cell line Hep3B; assay type: cell-based, human
[6] = cited from earlier work
SNU-449 = assay: Viability of HCC cell line SNU-449; assay type: cell-based, human
SNU-182 = assay: Viability of HCC cell line SNU-182; assay type: cell-based, human
[7] = cited from earlier work; remark: listed apart in the source
[8] = system: orthotopic PDX from HCC patients (HCC-1, HCC-2, HCC-3); assay: Orthotopic HCC PDX models, drug in food; assay type: in vivo, mouse; details: for PDX tumor growth (bioluminescence signals and tumor volumes): 1,500 p.p.m mixed in food, oral, vs regular chow
HSP90/CDC37 complex = HSP90/CDC37 complex (Homo sapiens, UniProt Q16543); assay type: biochemical; details: purified recombinant HSP90 and CDC37, ELISA and co-IP
[9] = system: genetically induced liver tumors; assay: Primary HCC mouse model; assay type: in vivo; details: 1500 p.p.m in food, 12 weeks; for number of tumor nodules in the livers: vs control food
[10] = system: control shRNA and CDC37 shRNA stable transfected Hep3B; assay: Cell viability of control shRNA and CDC37 shRNA Hep3B; assay type: cell-based, human; details: 6 days of treatment
HepG2 = assay: Viability of HCC cell line HepG2; assay type: cell-based, human
[11] = system: Wnt/β-catenin, Stat3, AKT/mTOR, and EGFR/Ras/Raf pathway proteins; assay: Western blotting of signaling proteins in PDX; assay type: in vivo, mouse; details: NEN 1,500 p.p.m in food
PLC/PRF/5 = assay: Viability of HCC cell line PLC/PRF/5; assay type: cell-based, human
SNU-475 = assay: Viability of HCC cell line SNU-475; assay type: cell-based, human
[12] = system: control shRNA and CDC37 shRNA stable transfected HepG2; assay: Cell viability of control shRNA and CDC37 shRNA HepG2; assay type: cell-based, human; details: 6 days of treatment
Hep40 = assay: Viability of HCC cell line Hep40; assay type: cell-based, human; details: read-out: IC50 in HCC cell lines, Hep40
SNU-423 = assay: Viability of HCC cell line SNU-423; assay type: cell-based, human
HepG2 and Huh7 cells [13] = assay type: cell-based, human; details: read-out: IC50, proliferation of HepG2 and Huh7 cells
PDX-HCC-2 = assay: PDX; assay type: in vivo, mouse; details: PDX HCC-2, sorafenib 50 mg/Kg, NEN 200 mg/Kg or niclosamide 400 mg/Kg, daily oral gavage, four weeks
[14] = system: primary hepatocytes Hu8216; assay: Viability of primary hepatocytes Hu8216; assay type: cell-based; details: Homo sapiens, Hepatocyte, read-out: IC50 in primary hepatocytes, Hu8216
[15] = system: primary hepatocytes Hu1748; assay: Viability of primary hepatocytes Hu1748; assay type: cell-based; details: Homo sapiens, Hepatocyte, read-out: IC50 in primary hepatocytes, Hu1748
CDC37 [16] = target: T1, CDC37; assay: Pull-down assay with niclosamide-conjugated sepharose beads; assay type: binding; details: niclosamide conjugated to epoxy-activated sepharose beads

With `NCCO.O=C(Nc1ccc([N+](=O)[O-])cc1Cl)c1cc(Cl)ccc1O` [NEN, niclosamide ethanolamine] the “IC30, Huh7” value (Huh7; Huh7) was 0.5 µM, the pIC50 (Huh7; read-out: IC50 in HCC cell lines, Huh7, viability, Huh7) was 6.20 and the “average Tm value of CDC37” value (CDC37 [1]; 25 μM) was 54.97 °C. For the same compound, the “average Tm value of CDC37” value (CDC37 [1]; 50 μM) was 56.03 °C, the pIC50 (SNU-398; read-out: IC50 in HCC cell lines, SNU-398, viability, SNU-398) was 6.70 and the “heat shock response (HSP70 and HSP27 induction)” value [2] was “did not induce the classical heat shock response”. The pIC50 ([3]; read-out: IC50, CDC37 knockdown Huh7, CDC37 shRNA) was 6.03, the pIC50 ([3]; read-out: IC50, mock transfected (control shRNA) Huh7, control shRNA) was 6.21 and the “effect on IC50 of sorafenib in HCC cells” value (HepG2 and Huh7 cells [4]) was “reduced their IC50 values to sorafenib”. The plasma levels [5] was “similarly higher”, the pIC50 (Hep3B; read-out: IC50 in HCC cell lines, Hep3B, viability) was 6.77 and the systemic bioavailability [6] was “improved water solubility and systemic bioavailability over niclosamide”. The pIC50 (SNU-449; read-out: IC50 in HCC cell lines, SNU-449, viability, SNU-449) was 6.28, the pIC50 (SNU-182; read-out: IC50 in HCC cell lines, SNU-182, viability, SNU-182) was 6.47 and the water solubility [7] was “improved water solubility”. For the same compound, the “PDX tumor growth (bioluminescence signals and tumor volumes)” value [8] was “significantly decreased PDX growth”, the body weight changes ([8]; end of treatment period, treated vs control groups) was “no significant body weight changes” and the “effect on HSP90/CDC37 interaction” value (HSP90/CDC37 complex) was “inhibited the HSP90/CDC37 interaction”. The “weight of whole livers (liver plus tumor nodules)” value ([9]; vs control and niclosamide groups) was “significantly reduced liver weight”, the “number of tumor nodules in the livers” value [9] was “visibly reduced the number of tumor nodules” and the pIC50 ([10]; read-out: IC50, CDC37 knockdown Hep3B, CDC37 shRNA) was 6.28. For the same compound, the pIC50 ([10]; read-out: IC50, mock transfected (control shRNA) Hep3B, control shRNA) was 6.80, the “IC30, HepG2” value (HepG2; HepG2) was 0.4 µM and the pIC50 (HepG2; read-out: IC50 in HCC cell lines, HepG2, viability, HepG2) was 6.34. The “expression levels of signaling pathway proteins” value [11] was “decreased expression levels of proteins involved in multiple signaling pathways”, the pIC50 (PLC/PRF/5; read-out: IC50 in HCC cell lines, PLC/PRF/5, viability, PLC/PRF/5) was 6.28 and the pIC50 (SNU-475; read-out: IC50 in HCC cell lines, SNU-475, viability, SNU-475) was 6.46. The pIC50 ([12]; read-out: IC50, CDC37 knockdown HepG2, CDC37 shRNA) was 6.21, the pIC50 ([12]; read-out: IC50, mock transfected (control shRNA) HepG2, control shRNA) was 6.46 and the pIC50 (Hep40; viability, Hep40) was 6.13. It also gave a pIC50 (SNU-423; read-out: IC50 in HCC cell lines, SNU-423, viability, SNU-423) of 6.59.

For `NCCO` [ethanolamine], the “average Tm value of CDC37” value (CDC37 [1]; 25 μM) was 52.93 °C and the “average Tm value of CDC37” value (CDC37 [1]; 50 μM) was 53.2 °C.

Compound `COC(=O)Nc1nc2ccc(C(=O)c3ccccc3)cc2[nH]1` [mebendazole] has a pIC50 (HepG2 and Huh7 cells [13]; Homo sapiens) of 5.78 to 6.42.

`O=C(Nc1ccc([N+](=O)[O-])cc1Cl)c1cc(Cl)ccc1O` [niclosamide] gave a pIC50 (Huh7; Homo sapiens, Huh-7, read-out: IC50 in HCC cell lines, Huh7) of 6.13, a pIC50 (SNU-398; Homo sapiens, SNU-398, read-out: IC50 in HCC cell lines, SNU-398) of 6.62 and a pIC50 (Hep3B; Homo sapiens, read-out: IC50 in HCC cell lines, Hep3B) of 6.70. For the same compound, the tumor volume (PDX-HCC-2) was “did not decrease tumor volume”, the systemic bioavailability ([6]; in vivo) was “very limited systemic bioavailability” and the pIC50 (SNU-449; Homo sapiens, SNU-449, read-out: IC50 in HCC cell lines, SNU-449) was 6.17. For the same compound, the pIC50 (HepG2 and Huh7 cells [13]; Homo sapiens) was 5.75 to 6.19, the pIC50 (SNU-182; Homo sapiens, SNU-182, read-out: IC50 in HCC cell lines, SNU-182) was 6.44 and the pIC50 [14] was 5.37. The “PDX tumor growth (bioluminescence signals and tumor volumes)” value [8] was “did not produce any significant effects on tumor growth”, the “number of tumor nodules in the livers” value [9] was “much lesser effect than NEN” and the pIC50 (HepG2; Homo sapiens, HepG2, read-out: IC50 in HCC cell lines, HepG2) was 6.07. The pIC50 [15] was 5.44, the “pull-down of CDC37” value (CDC37 [16]) was “pulled down CDC37” and the pIC50 (PLC/PRF/5; Homo sapiens, PLC-PRF-5, read-out: IC50 in HCC cell lines, PLC/PRF/5) was 6.11. For the same compound, the pIC50 (SNU-475; Homo sapiens, SNU-475, read-out: IC50 in HCC cell lines, SNU-475) was 6.40, the pIC50 (Hep40; Homo sapiens) was 6.09 and the pIC50 (SNU-423; Homo sapiens, SNU-423, read-out: IC50 in HCC cell lines, SNU-423) was 6.49.

Compound ivermectin has a pIC50 (HepG2 and Huh7 cells [13]; range over HepG2 and Huh7, Supplemental Figure 8) of less than 5.00.
